Assay results taken from US6642392B1 (priority 1997, dated 2003).
Like-named read-outs stand apart in the source and are kept apart here.

Columns and labels:
Type in all cases: in vivo
Puccinia recondita = test: Test B: wheat leaf rust, preventive spray on wheat seedlings; settings: for Test B disease control rating: wheat leaf rust; for Test B disease control rating (100 = 100% disease control, 0 = no disease control): rating relative to controls
How it was run: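 Wheat seedlings were sprayed to run-off with compound (3% acetone, 250 ppm Trem 014), then inoculated with P. recondita spores the next day. They were held 24 h saturated at 20 °C, then 6 days at 20 °C. Ratings are 0–100% disease control versus controls.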

Botrytis cinerea = test: Test E: gray mold, preventive spray on cucumber seedlings; settings: for Test E disease control rating: gray mold on cucumber; for Test E disease control rating (100 = 100% disease control, 0 = no disease control): rating relative to controls
How it was run: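 Compounds in 3% acetone were suspended with 250 ppm Trem 014 surfactant and sprayed to run-off on cucumber seedlings. B. cinerea spores were inoculated next day, then 48 h saturated humidity at 20° C and 5 days at 20° C. Disease control rated 0–100% versus controls.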

Phytophthora infestans = settings: for Test D disease control rating: tomato late blight; for Test D disease control rating (100 = 100% disease control, 0 = no disease control): rating relative to controls
[1] = tested on: Eiysiphe graminis f. sp. tritici; test: Test A: wheat powdery mildew, preventive spray on wheat seedlings; settings: for Test A disease control rating: wheat powdery mildew; for Test A disease control rating (100 = 100% disease control, 0 = no disease control): rating relative to controls
How it was run: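 Compounds (3% acetone, 250 ppm Trem 014) sprayed to run-off on wheat seedlings, inoculated next day with spore dust. Incubated 7 days at 20° C before disease rating, 0–100% control relative to untreated controls.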

Pyricularia oryzae = settings: for Test C disease control rating: rice blast; for Test C disease control rating (100 = 100% disease control, 0 = no disease control): rating relative to controls
[2] = 100 = 100% disease control, 0 = no control, unmarked entries (standard test concentration)
[3] = 100 = 100% disease control, 0 = no control relative to controls, unmarked entries (standard test concentration)
[4] = wheat seedlings sprayed to run-off, inoculated the following day, unmarked compounds (standard test rate)
[5] = cucumber seedlings sprayed to run-off, inoculated the following day, unmarked compounds (standard test rate)
[6] = tomato seedlings sprayed to run-off, inoculated the following day, unmarked compounds (standard test rate)
[7] = rice seedlings sprayed to run-off, inoculated the following day, unmarked compounds (standard test rate)
[8] = tested at 40 ppm, wheat seedlings

SMILES: CCC1(C(=O)NC(C)COc2c(C#N)cccc2C(F)(F)F)C(C)C1(Cl)Cl (mixture of isomers) [compound 134]
- Test B disease control rating (Puccinia recondita; [2]): 0%
- Test E disease control rating (Botrytis cinerea; [2]): 0%
- Test D disease control rating (Phytophthora infestans; [2]): 30%
- Test A disease control rating [1, 3]: 0%
- Test C disease control rating (Pyricularia oryzae; [2]): 0%

SMILES: CC(COc1c(Cl)cccc1C#N)NC(=O)C(C#N)C(C)(C)C (mixture of isomers) [compound 210]
- Test B disease control rating (Puccinia recondita; [2]): 0%
- Test E disease control rating (Botrytis cinerea; [2]): 0%
- Test D disease control rating (Phytophthora infestans; [2]): 0%
- Test A disease control rating [1, 3]: 0%
- Test C disease control rating (Pyricularia oryzae; [2]): 91%

SMILES: CC(COc1ccccc1)NC(=O)C1(C)C(C)C1(Cl)Cl (mixture of isomers) [compound 310]
- Test B disease control rating (100 = 100% disease control, 0 = no disease control) (Puccinia recondita; [4]): 25%
- Test E disease control rating (100 = 100% disease control, 0 = no disease control) (Botrytis cinerea; [5]): 18%
- Test D disease control rating (100 = 100% disease control, 0 = no disease control) (Phytophthora infestans; [6]): 0%
- Test A disease control rating (100 = 100% disease control, 0 = no disease control) [1, 4]: 84%
- Test C disease control rating (100 = 100% disease control, 0 = no disease control) (Pyricularia oryzae; [7]): 53%

SMILES: CCC1(C(=O)NC(C)COc2ccc(F)cc2C#N)C(C)C1(Cl)Cl (mixture of isomers) [compound 129]
- Test B disease control rating (Puccinia recondita; [2]): 26%
- Test E disease control rating (Botrytis cinerea; [2]): 0%
- Test D disease control rating (Phytophthora infestans; [2]): 0%
- Test A disease control rating [1, 3]: 38%
- Test C disease control rating (Pyricularia oryzae; [2]): 74%

SMILES: C[C@H](COc1ccc(F)cc1Br)NC(=O)C(C#N)C(C)(C)C (single isomer, unassigned) [165b]
- Test B disease control rating (Puccinia recondita; [2]): 0%
- Test E disease control rating (Botrytis cinerea; [2]): 95%
- Test D disease control rating (Phytophthora infestans; [2]): 23%
- Test A disease control rating [1, 3]: 95%
- Test C disease control rating (Pyricularia oryzae; [2]): 94%

SMILES: C=CCc1ccccc1OCC(C)NC(=O)C1(CC)C(C)C1(Cl)Cl (centres unmarked) [101b]
- Test B disease control rating (Puccinia recondita; tested at 40 ppm): 0%
- Test E disease control rating (Botrytis cinerea; tested at 40 ppm): 0%
- Test D disease control rating (Phytophthora infestans; tested at 40 ppm): 0%
- Test A disease control rating ([1]; tested at 40 ppm): 0%
- Test C disease control rating (Pyricularia oryzae; tested at 40 ppm): 0%

SMILES: CC(COc1cccc(Cl)c1)NC(=O)C(C#N)C(C)(C)C (mixture of isomers) [6b]
- Test B disease control rating (Puccinia recondita; [2]): 68%
- Test E disease control rating (Botrytis cinerea; [2]): 0%
- Test D disease control rating (Phytophthora infestans; [2]): 4%
- Test A disease control rating [1, 3]: 38%
- Test C disease control rating (Pyricularia oryzae; [2]): 53%

SMILES: CCC1(C(=O)NC(C)COc2cccc(CF)c2)C(C)C1(Cl)Cl (mixture of isomers) [compound 317]
- Test B disease control rating (100 = 100% disease control, 0 = no disease control) (Puccinia recondita; [8]): 0%
- Test E disease control rating (100 = 100% disease control, 0 = no disease control) (Botrytis cinerea; tested at 40 ppm, cucumber seedlings): 0%
- Test D disease control rating (100 = 100% disease control, 0 = no disease control) (Phytophthora infestans; tested at 40 ppm, tomato seedlings): 19%
- Test A disease control rating (100 = 100% disease control, 0 = no disease control) [1, 8]: 57%
- Test C disease control rating (100 = 100% disease control, 0 = no disease control) (Pyricularia oryzae; tested at 40 ppm, rice seedlings): 85%

SMILES: C#CC(C)(C)C(C#N)C(=O)NC(C)COc1cc(F)ccc1F (mixture of isomers) [compound 211]
- Test B disease control rating (Puccinia recondita; [2]): 0%
- Test E disease control rating (Botrytis cinerea; [2]): 0%
- Test D disease control rating (Phytophthora infestans; [2]): 76%
- Test A disease control rating [1, 3]: 63%
- Test C disease control rating (Pyricularia oryzae; [2]): 100%

SMILES: CCC1(C(=O)NC(C)COc2cccc(Cl)c2C#N)C(C)C1(Cl)Cl (mixture of isomers) [compound 131]
- Test B disease control rating (Puccinia recondita; [2]): 0%
- Test E disease control rating (Botrytis cinerea; [2]): 0%
- Test D disease control rating (Phytophthora infestans; [2]): 52%
- Test A disease control rating [1, 3]: 0%
- Test C disease control rating (Pyricularia oryzae; [2]): 53%

SMILES: CCC1(C(=O)NC(C)COc2cccc(CF)c2)C(C)C1(Cl)Cl (mixture of isomers) [compound 93]
- Test B disease control rating (Puccinia recondita; tested at 40 ppm): 0%
- Test E disease control rating (Botrytis cinerea; tested at 40 ppm): 0%
- Test D disease control rating (Phytophthora infestans; tested at 40 ppm): 19%
- Test A disease control rating ([1]; tested at 40 ppm): 57%
- Test C disease control rating (Pyricularia oryzae; tested at 40 ppm): 85%

SMILES: CCC1(C(=O)NCCCn2cccc2Cl)C(C)C1(Cl)Cl (centres unmarked) [compound 146]
- Test B disease control rating (Puccinia recondita; [2]): 22%
- Test E disease control rating (Botrytis cinerea; [2]): 0%
- Test D disease control rating (Phytophthora infestans; [2]): 0%
- Test A disease control rating [1, 3]: 0%
- Test C disease control rating (Pyricularia oryzae; [2]): 0%

SMILES: C[C@H](COc1cc(F)c(F)cc1F)NC(=O)C(C#N)C(C)(C)C (single isomer, unassigned) [188a]
- Test B disease control rating (Puccinia recondita; [2]): 0%
- Test E disease control rating (Botrytis cinerea; [2]): 0%
- Test D disease control rating (Phytophthora infestans; [2]): 56%
- Test A disease control rating [1, 3]: 0%
- Test C disease control rating (Pyricularia oryzae; [2]): 97%

SMILES: Cc1ccc(Cl)c(OC[C@@H](C)NC(=O)C(C#N)C(C)(C)C)c1 (single isomer, unassigned) [15a]
- Test B disease control rating (Puccinia recondita; [2]): 28%
- Test E disease control rating (Botrytis cinerea; [2]): 86%
- Test D disease control rating (Phytophthora infestans; [2]): 92%
- Test A disease control rating [1, 3]: 0%
- Test C disease control rating (Pyricularia oryzae; [2]): 97%

SMILES: CCC1(C(=O)NC(C)COc2cc(OC(F)F)ccc2C#N)C(C)C1(Cl)Cl (mixture of isomers) [compound 256]
- Test B disease control rating (100 = 100% disease control, 0 = no disease control) (Puccinia recondita; [4]): 0%
- Test E disease control rating (100 = 100% disease control, 0 = no disease control) (Botrytis cinerea; [5]): 0%
- Test D disease control rating (100 = 100% disease control, 0 = no disease control) (Phytophthora infestans; [6]): 0%
- Test A disease control rating (100 = 100% disease control, 0 = no disease control) [1, 4]: 56%
- Test C disease control rating (100 = 100% disease control, 0 = no disease control) (Pyricularia oryzae; [7]): 0%

SMILES: C[C@H](COc1cc(F)ccc1F)NC(=O)C(C#N)C(C)(C)C=CF (single isomer, unassigned) [221b]
- Test B disease control rating (100 = 100% disease control, 0 = no disease control) (Puccinia recondita; [4]): 68%
- Test E disease control rating (100 = 100% disease control, 0 = no disease control) (Botrytis cinerea; [5]): 0%
- Test D disease control rating (100 = 100% disease control, 0 = no disease control) (Phytophthora infestans; [6]): 41%
- Test A disease control rating (100 = 100% disease control, 0 = no disease control) [1, 4]: 62%
- Test C disease control rating (100 = 100% disease control, 0 = no disease control) (Pyricularia oryzae; [7]): 100%

SMILES: C=CC(C)(C)C(C#N)C(=O)NC(C)COc1cc(F)ccc1F (mixture of isomers) [compound 214]
- Test B disease control rating (Puccinia recondita; [2]): 0%
- Test E disease control rating (Botrytis cinerea; [2]): 0%
- Test D disease control rating (Phytophthora infestans; [2]): 23%
- Test A disease control rating [1, 3]: 0%
- Test C disease control rating (Pyricularia oryzae; [2]): 100%

SMILES: CCC(C#N)C(=O)N[C@H](C)[C@H](Oc1cc(F)ccc1F)c1ccccc1 (some centres unmarked) [compound 293]
- Test B disease control rating (100 = 100% disease control, 0 = no disease control) (Puccinia recondita; [4]): 0%
- Test E disease control rating (100 = 100% disease control, 0 = no disease control) (Botrytis cinerea; [5]): 0%
- Test D disease control rating (100 = 100% disease control, 0 = no disease control) (Phytophthora infestans; [6]): 23%
- Test A disease control rating (100 = 100% disease control, 0 = no disease control) [1, 4]: 0%
- Test C disease control rating (100 = 100% disease control, 0 = no disease control) (Pyricularia oryzae; [7]): 100%

SMILES: C=CCc1ccccc1OCC(C)NC(=O)C(C#N)C(C)(C)C (mixture of isomers) [25b]
- Test B disease control rating (Puccinia recondita; [2]): 0%
- Test E disease control rating (Botrytis cinerea; [2]): 0%
- Test D disease control rating (Phytophthora infestans; [2]): 24%
- Test A disease control rating [1, 3]: 63%
- Test C disease control rating (Pyricularia oryzae; [2]): 97%

SMILES: CCC1(C(=O)NCC=Cc2cc(Cl)ccc2Cl)C(C)C1(Cl)Cl (centres unmarked) [compound 163]
- Test B disease control rating (Puccinia recondita; tested at 40 ppm): 0%
- Test E disease control rating (Botrytis cinerea; tested at 40 ppm): 0%
- Test D disease control rating (Phytophthora infestans; tested at 40 ppm): 42%
- Test A disease control rating ([1]; tested at 40 ppm): 0%
- Test C disease control rating (Pyricularia oryzae; tested at 40 ppm): 52%

SMILES: CCC1(C(=O)NC(C)COc2c(C)cccc2C#N)C(C)C1(Cl)Cl (mixture of isomers) [compound 259]
- Test B disease control rating (100 = 100% disease control, 0 = no disease control) (Puccinia recondita; [4]): 0%
- Test E disease control rating (100 = 100% disease control, 0 = no disease control) (Botrytis cinerea; [5]): 48%
- Test D disease control rating (100 = 100% disease control, 0 = no disease control) (Phytophthora infestans; [6]): 0%
- Test A disease control rating (100 = 100% disease control, 0 = no disease control) [1, 4]: 84%
- Test C disease control rating (100 = 100% disease control, 0 = no disease control) (Pyricularia oryzae; [7]): 91%

SMILES: CC(COc1c(F)cccc1C#N)NC(=O)C(C#N)C(C)C(C)(C)C (mixture of isomers) [compound 67]
- Test B disease control rating (Puccinia recondita; [2]): 0%
- Test E disease control rating (Botrytis cinerea; [2]): 0%
- Test D disease control rating (Phytophthora infestans; [2]): 92%
- Test A disease control rating [1, 3]: 0%
- Test C disease control rating (Pyricularia oryzae; [2]): 0%
